Laboratory results reported in patent publication US20240392240A1, “PIG EMBRYO-DERIVED PLURIPOTENT STEM CELLS AND USE THEREOF” (CHINA AGRICULTURAL UNIVERSITY, priority 2021, published 2024).
Entries after “also recorded” stand apart in the source; their conditions may differ.

Legend:
Format in all cases: cell-based, pig
[1] = system: pgEpiSCs; experiment: qRT-PCR of marker gene mRNA in pgEpiSCs in modified 3i/LAF medium
Experimental: Total RNA from pgEpiSCs was extracted using the RNAprep Pure Cell/Bacteria Kit (TIANGEN, DP430), and then reverse transcribed to cDNA using 5×All-in-One RT Master Mix (Abm, G490). PCR was performed on a LightCycler480 II Real Time System (Roche) using 2×RealStar Green Power Mixture (GenStar, A311-05). The data were analyzed using the comparative CT (2^−ΔΔCT) method. ΔCT was calculated using EF1A as an internal control. All experiments were performed in three biological replicates. Primers used for quantitative real-time PCR are listed in the Resource table.
(§1) According to the 3i/LAF medium and its culture method described in Example 1, the inventors tested the requirement for each factor in the 3i/LAF medium for long-term in vitro maintenance of pgEpiSCs on the basis of removing the small molecule inhibitors and cytokines from the culture medium one by one without altering the other conditions.

[2] = system: pgEpiSCs; experiment: Clone morphology and alkaline phosphatase (AP) staining of pgEpiSCs in modified 3i/LAF medium; details: for clone morphology and AP staining signal after removal of the factor: factor removed from 3i/LAF medium, other conditions unchanged, FIG. 2-1A
Experimental: The alkaline phosphatase staining of pgEpiSC was based on the Alkaline Phosphatase Assay Kit (Millipore, SCR004). Specific experimental steps followed the instructions of the kit.
Epiblast from pig E8-E10 embryos was obtained, and the epiblast was treated with TrypLE™ Express followed by repeatedly blowing to disperse into small cell masses. The cell masses were then inoculated into 12-well cell culture dishes (density of the feeder layer cells were approximately 2×10^5 cells/well) supplemented with 750 μL of 3i/LAF medium (Note: 10 μM Y27632 was added into the 3i/LAF medium), wherein the feeder layer cells were mouse embryonic fibroblasts treated with mitomycin C (Selleckchem, S8146) and cultured in an incubator at 37° C., 100% humidity, and 5% CO2. After 12 hrs, another 750 μL of 3i/LAF medium was added without changing the medium, and after 24 hrs, the medium was replaced with fresh 3i/LAF medium (containing 2 μM Y27632). After that, the medium was replaced with fresh medium every 12 hrs, and after the clones grew for 2-3 days, the morphology of the clones was observed and the clones were digested for passaging.
as §1
Experimental method: pgEpiSCs were cultured with the adjusted medium, after which AP staining was performed on the cultured pgEpiSCs of P1 (indicating the pgEpiSCs after 1 passage in the adjusted medium) or P3 (indicating the pgEpiSCs after 3 passages in the adjusted medium). The specific steps of AP staining are described in the section of Experimental Methods described previously.

[3] = system: pgEpiSCs; experiment: Cell proliferation, survival and passaging of pgEpiSCs; details: for proliferation and passaging of pgEpiSCs: FGF2 removed and ERK/MEK inhibitor PD0325901 added, FIG. 2-1I to 2-1K
Experimental: pgEpiSCs were cultured in a 12-well plate. Cell samples were inoculated at a density of 2× 10^4 cells per well in triplicate. The number of cells was counted every 12 hours. For each time point, cells were digested and counted using a Luna™ Automated Cell Counter, and the results of three counts were averaged and plotted. The cell doubling time was calculated as follows: doubling time (DT)=24×[lg2/(lgNt−lgN0)], where 24 is the cell culture time (hour); Nt is the number of cells cultured for 48 hours; and No is the number of cells recorded at 24 hours.
as §1

[4] = system: phosphorylated STAT3; experiment: Western blot of phosphorylated STAT3 in pgEpiSCs; details: with or without LIF; FIG. 2-1M
Experimental: Total proteins were extracted from cells by cell lysis buffer (Beyotime Biotechnology, P0013), and nuclear and cytoplasmic proteins were extracted using the nucleus and cytoplasmic protein extraction kit (Beyotime Biotechnology, P0027) supplemented with protease and phosphatase inhibitor cocktail (Beyotime Biotechnology, P1050) to extract nuclear and cytoplasmic proteins. The concentration of extracted proteins was measured using the Bradford Protein Assay Kit (Bio-red, 5000201). An equal amount of proteins (15 μg) was separated by SDS-PAGE gel electrophoresis, which were transferred from the gel to Immobilon-P transfer membrane (Merck Millipore; pore size: 0.45 μm; IPVH00010). The blots were blocked in 5% nonfat powdered milk (Sangon Biotech, A600669-0250) in TBST (20 mM Tris, pH 7.5; 150 mM NaCl; 0.1% Tween 20) at room temperature for 1 hour and then incubated with primary antibodies diluted in 5% nonfat powdered milk in TBST overnight at 4° C. The next day, the blots were rinsed three times with TBST for 5 minutes each time, then incubated together with HRP-coupled secondary antibody diluted in 5% nonfat powdered milk in TBST for 1 hour at room temperature. The blots were developed with SuperSignal West Dura Extended Duration Substrate (Thermo Fisher Scientific, 34075), and the intensity of the bands of the target proteins was analyzed using CLINX chemiluminescence software. […]

[5] = system: pgEpiSCs; experiment: Immunostaining of POU5F1 and EOMES in pgEpiSCs; details: factor removed from 3i/LAF medium; FIG. 2-1C
Experimental: Cells were washed with DPBS (Gibco, C14190500BT) and fixed with 4% paraformaldehyde for 30 min at room temperature, then washed with DPBS again, permeabilized in 0.1% Triton X-100 for 20 min and blocked with 3% BSA for 1 hour. Cells were incubated with primary antibody diluted with 3% BSA at 4° C. overnight. Cells were then washed three times for 3 min each with wash buffer (DPBS containing 0.1% Triton X-100 and 0.1% Tween 20). The secondary antibody was diluted, and incubated with wash buffer for 1 hour at room temperature, then washed three times for 5 min each with wash buffer, and then the nuclei were stained with DAPI (Roche Life Science, 10236276001) for 3 min.
as §1

[6] = high concentration of CHIR99021 in the medium, FIG. 2-1E, 2-1F, 2-2C, 2-2D
[7] = inhibitor added into the culture medium, FIG. 2-1H
[8] = only IWR-1-endo replaced with XAV939, FIG. 2-2A
[9] = only IWR-1-endo replaced with XAV939, FIG. 2-2B
[10] = factor removed from 3i/LAF medium, FIG. 2-1B

Cc1c[nH]c(-c2cnc(NCCNc3ccc(C#N)cn3)nc2-c2ccc(Cl)cc2Cl)n1 [CHIR99021]
expression of cell proliferation-related genes (LIN28A, C-MYC, ETV4, ETV5) after removal of the factor ([1]; factor removed from 3i/LAF medium, FIG. 2-1D): down-regulated | expression of GATA6 at high concentration [1, 6]: significant up-regulation; also recorded: up-regulated | expression of pluripotency marker POU5F1 at high concentration [1, 6]: down-regulation; also recorded: decreased

NC(=O)c1ccc(-c2nc(-c3ccc4c(c3)OCO4)c(-c3ccccn3)[nH]2)cc1 [SB431542]
clone morphology after addition of the inhibitor ([2]; inhibitor added into the culture medium, FIG. 2-1G, 2-1L): irregular clone morphology | level of NANOG after addition of the inhibitor ([1]; inhibitor added into the culture medium, FIG. 2-1G, 2-1H): dramatic decrease | BMP4 and BMP downstream transcription factors (ID2, ID3) after addition of the inhibitor [1, 7]: significant increase | pluripotency markers (POU5F1, REX1) after addition of the inhibitor [1, 7]: significant decrease

FGF2: fibroblast growth factor, cytokine of the 3i/LAF medium (Peprotech, 100-18B)
proliferation and passaging of pgEpiSCs [3]: could not proliferate or be passaged normally | proliferative capacity of pgEpiSCs on decreasing the concentration ([3]; decreasing FGF2 concentration, all other conditions unchanged, FIG. 2-1K): significantly reduced | cell proliferation at high concentrations ([3]; high concentrations of FGF2, FIG. 2-1K): faster cell proliferation

LIF: cytokine of the 3i/LAF medium (PeproTech, 300-05)
clone morphology and AP staining signal after removal of the factor ([2]; 2-1L): not necessary to maintain the morphology | detection of phosphorylated STAT3 [4]: could be detected only in the presence of LIF

Oc1nc(-c2ccc(C(F)(F)F)cc2)nc2c1CSCC2 [XAV939]
passaging at which AP positivity was lost (figure legend) ([2]; IWR-1-endo replacement with XAV939, FIG. 2-2A): around 8 passages of passaging | maintenance of pluripotency after IWR-1-endo replacement [2, 8]: unable to maintain pluripotency for a long period of time | passaging at which AP positivity was lost [2, 8]: about 8 generations of passaging | expression of core pluripotency factor OCT4 (POU5F1) after IWR-1-endo replacement [1, 9]: down-regulated | expression of pluripotency factors REX1, STELLA and ESRRB after IWR-1-endo replacement [1, 9]: down-regulated

O=C(Nc1cccc2cccnc12)c1ccc(N2C(=O)[C@@H]3[C@H](C2=O)[C@@H]2C=C[C@H]3C2)cc1 [IWR-1-endo]
clone morphology and AP staining signal after removal of the factor ([2]; 2-1L): poorly defined boundaries of the pgEpiSC clone | expression of core pluripotency factors (NANOG, POU5F1, SOX2, REX1) after removal of the factor [1, 10]: significant down-regulation | expression of gastrulation marker genes BMP2, BMP4, EOMES and T after removal of the factor [1, 10]: up-regulation | mesodermal and endodermal progenitor marker EOMES immunostaining after removal of the factor [5]: promoting the expression | pluripotency factor POU5F1 immunostaining after removal of the factor [5]: reduced accumulation or heterogeneity

COc1ccc(N(C(=O)Oc2c(C)cccc2C)c2ccnc(Nc3ccc(N4CCN(C)CC4)cc3)n2)c(OC)c1 [WH-4-023]
expression of gastrulation marker genes BMP2, BMP4, EOMES and T after removal of the factor [1, 10]: up-regulation | mesodermal and endodermal progenitor marker EOMES immunostaining after removal of the factor [5]: promoting the expression | pluripotency factor POU5F1 immunostaining after removal of the factor [5]: reduced accumulation or heterogeneity

O=C(NOC[C@H](O)CO)c1ccc(F)c(F)c1Nc1ccc(I)cc1F [PD0325901]
proliferation and passaging of pgEpiSCs [3]: could not proliferate or be passaged normally

Activin A: TGF-β superfamily member, cytokine of the 3i/LAF medium (Peprotech, 120-14E)
level of pluripotency marker NANOG after removal of the factor ([1]; factor removed from 3i/LAF medium, FIG. 2-1G, 2-1H): decrease
